Laboratory results as given in US8293706B2, “Method for inhibiting release of hepatitis B virus from liver cells” (priority 2008, dated 2012).
Like-named read-outs stand apart in the source and are kept apart here.

Columns and labels:
HBV M204I = test: HBVDR assay, strain M204I; assay type: cell-based
HBV LM/MV = test: HBVDR assay, strain LM/MV; assay type: cell-based
HBV L180M = test: HBVDR assay, strain L180M; assay type: cell-based
[1] = Neutral red dye uptake toxicity in 2.2.15 cells; assay type: cell-based, human; conditions: human, neutral red uptake (A510) 24 hours after last of 9 daily treatments, positive assay control
Experimental: (§1) The ability of sLDLR to inhibit pathogenic viruses was tested by the NIAID Antimicrobial Acquisition and Coordinating Facility (AACF). Confluent cultures of 2.2.15 cells (HBV-infected human HepG2 hepatocellular carcinoma cells (ATCC HB-8065), constitutively shedding HBV virions) were maintained on 96-well flat-bottomed tissue culture plates in RPMI1640 medium with 2% fetal bovine serum (Korba & Gerin, Antivir. Res. 19:55-70, 1992). Cultures (6 per each of 4 test concentrations on two replicate plates) were treated with 9 consecutive daily doses of sLDL compounds. Medium was changed daily with fresh test compounds. HBV virion DNA in the culture medium was assessed 24 hours after the last treatment by quantitative blot hybridization. Uptake of neutral red dye (absorbance of internalized dye at […] [A510]) wa used to determine the relative level of toxicity 24 hours following the last treatment (Korba & Gerin, Antivir. Res. 19:55-70, 1992). Values are presented as a percentage of the average A510 values for 9 separate cultures of untreated cells maintained on the same plate. Cultures for the toxicity analyses were seeded at the same time with the identical pool of stock cells used for the antiviral analyses and maintained in an identical manner. A total of 3 cultures were treated with each concentration of test compound. […] CC50, EC50, EC90, and S.I. (CC50/EC90) were calculated. […]

HBV N236T = test: HBVDR assay, strain N236T; assay type: cell-based
HBV = test: Inhibition of HBV release from 2.2.15 cells (HBV virion DNA in culture medium, quantitative blot hybridization); assay type: cell-based; conditions: for SI: S.I. (CC50/EC90)
Experimental: The ability of sLDLR to inhibit pathogenic viruses was tested by the NIAID Antimicrobial Acquisition and Coordinating Facility (AACF). Confluent cultures of 2.2.15 cells (HBV-infected human HepG2 hepatocellular carcinoma cells (ATCC HB-8065), constitutively shedding HBV virions) were maintained on 96-well flat-bottomed tissue culture plates in RPMI1640 medium with 2% fetal bovine serum (Korba & Gerin, Antivir. Res. 19:55-70, 1992). Cultures (6 per each of 4 test concentrations on two replicate plates) were treated with 9 consecutive daily doses of sLDL compounds. Medium was changed daily with fresh test compounds. HBV virion DNA in the culture medium was assessed 24 hours after the last treatment by quantitative blot hybridization. Uptake of neutral red dye (absorbance of internalized dye at […] [A510]) wa used to determine the relative level of toxicity 24 hours following the last treatment (Korba & Gerin, Antivir. Res. 19:55-70, 1992). Values are presented as a percentage of the average A510 values for 9 separate cultures of untreated cells maintained on the same plate. Cultures for the toxicity analyses were seeded at the same time with the identical pool of stock cells used for the antiviral analyses and maintained in an identical manner. A total of 3 cultures were treated with each concentration of test compound. […] CC50, EC50, EC90, and S.I. (CC50/EC90) were calculated. Lamivudine (3TC) was used as a positive assay control.

HBV M204V = test: HBVDR assay, strain M204V; assay type: cell-based
HBV WT = test: HBVDR assay, strain WT; assay type: cell-based; conditions: assay type HBVDR
[2] = system: 2.2.15 cells (HBV-infected human HepG2 hepatocellular carcinoma cells); test: Neutral red dye uptake toxicity in 2.2.15 cells; assay type: cell-based; conditions: neutral red uptake (A510) 24 hours after last of 9 daily treatments
Experimental: as §1

[3] = system: lamivudine as well as adefovir dipovoxil resistant mutants (HBV); test: HBVDR assay, panel of resistant mutants; assay type: cell-based; conditions: all tested resistant mutants
[4] = HBV strain M204I, assay type HBVDR, read-out: EC50
[5] = HBV strain M204I, assay type HBVDR, read-out: EC90
[6] = HBV strain LM/MV, assay type HBVDR, read-out: EC50
[7] = HBV strain LM/MV, assay type HBVDR, read-out: EC90
[8] = HBV strain L180M, assay type HBVDR, read-out: EC50
[9] = HBV strain L180M, assay type HBVDR, read-out: EC90
[10] = HBV strain N236T, assay type HBVDR, read-out: EC50
[11] = HBV strain N236T, assay type HBVDR, read-out: EC90
[12] = HBV virion DNA in culture medium 24 hours after last of 9 consecutive daily doses, 2.2.15 cells
[13] = HBV strain M204V, assay type HBVDR, read-out: EC50
[14] = HBV strain M204V, assay type HBVDR, read-out: EC90

Row | Molecule | EC50 (HBV M204I; [4]) [µM] | EC90 (HBV M204I; [5]) [µM] | EC50 (HBV LM/MV; [6]) [µM] | EC90 (HBV LM/MV; [7]) [µM] | EC50 (HBV L180M; [8]) [µM] | EC90 (HBV L180M; [9]) [µM] | EC50 (HBV N236T; [10]) [µM] | EC90 (HBV N236T; [11]) [µM] | EC50 (HBV M204V; [13]) [µM] | EC90 (HBV M204V; [14]) [µM] | EC50 (HBV WT) [µM] | EC90 (HBV WT) [µM] | further results
1 | Nc1ccn([C@@H]2CS[C@H](CO)O2)c(=O)n1 [Lamivudine] |  |  |  |  |  |  |  |  |  |  |  |  | EC50 (HBV M204I; Hepatitis B virus): > 100 µM; EC90 (HBV M204I; Hepatitis B virus): > 100 µM; EC50 (HBV LM/MV; Hepatitis B virus): > 100 µM; EC90 (HBV LM/MV; Hepatitis B virus): > 100 µM; EC50 (HBV L180M; Hepatitis B virus): 5.2 µM; EC90 (HBV L180M; Hepatitis B virus): 20 µM; CC50 [1]: 2310 µM; EC50 (HBV N236T; Hepatitis B virus): 0.2 µM; EC90 (HBV N236T; Hepatitis B virus): 0.6 µM; EC50 (HBV; Hepatitis B virus, 24 h): 0.045 µM; EC90 (HBV; Hepatitis B virus, 24 h): 0.146 µM; SI (HBV; Lamivudine columns): 15178; EC50 (HBV M204V; Hepatitis B virus): > 100 µM; EC90 (HBV M204V; Hepatitis B virus): > 100 µM; EC50 (HBV WT; Hepatitis B virus): 0.2 µM; EC90 (HBV WT; Hepatitis B virus): 0.7 µM
2 | sLDLR | 1.1 | 8 | 1.2 | 7.5 | 0.8 | 6.3 | 1 | 8.2 | 1 | 6.5 | 0.9 | 6 | CC50 [2]: >10 µg/mL; inhibition of formation of HBV virion from virus-infected cells relative to toxicity (HBV; 2.2.15 cells): inhibited the formation of HBV virion from virus-infected cells at concentrations far below toxicity; EC50 (HBV; [12]): 0.131 µg/mL; EC90 (HBV; [12]): 0.922 µg/mL; SI (HBV; sLDLR columns): >11; activity against lamivudine and adefovir dipovoxil resistant mutants [3]: active against all tested lamivudine as well as adefovir dipovoxil resistant mutants
3 | CC(C)(C)C(=O)OCOP(=O)(COCCn1cnc2c(N)ncnc21)OCOC(=O)C(C)(C)C [ADV, Adefovir Dipovoxil] | 1.3 | 7.2 | 1.3 | 7.8 | 1.9 | 8.5 | 8.1 | 32 | 1.8 | 7 | 1.5 | 6.5 | 
